# Test results published in ChEMBL document CHEMBL3632570, “Structure-Guided Design of Novel l-Cysteine Derivatives as Potent KSP Inhibitors” (ACS Med Chem Lett, 2015).
# Calls of active or inactive are those of the source. The calls are words filed in the database; no cut-off is given here.
# Tests used:
# [1] = molecular target: T1, Kinesin-like protein KIF11 (Homo sapiens, UniProt P52732); test: Inhibition of His-tagged KSP motor domain (1 to 369) (unknown origin) assessed as inhibition of microtubule-stimulated KSP ATPase activity preincuabted for 30 mins followed by ATP addition measured after 15 mins by Kinase-Glo assay
# T1 sequence (P52732 whole entry): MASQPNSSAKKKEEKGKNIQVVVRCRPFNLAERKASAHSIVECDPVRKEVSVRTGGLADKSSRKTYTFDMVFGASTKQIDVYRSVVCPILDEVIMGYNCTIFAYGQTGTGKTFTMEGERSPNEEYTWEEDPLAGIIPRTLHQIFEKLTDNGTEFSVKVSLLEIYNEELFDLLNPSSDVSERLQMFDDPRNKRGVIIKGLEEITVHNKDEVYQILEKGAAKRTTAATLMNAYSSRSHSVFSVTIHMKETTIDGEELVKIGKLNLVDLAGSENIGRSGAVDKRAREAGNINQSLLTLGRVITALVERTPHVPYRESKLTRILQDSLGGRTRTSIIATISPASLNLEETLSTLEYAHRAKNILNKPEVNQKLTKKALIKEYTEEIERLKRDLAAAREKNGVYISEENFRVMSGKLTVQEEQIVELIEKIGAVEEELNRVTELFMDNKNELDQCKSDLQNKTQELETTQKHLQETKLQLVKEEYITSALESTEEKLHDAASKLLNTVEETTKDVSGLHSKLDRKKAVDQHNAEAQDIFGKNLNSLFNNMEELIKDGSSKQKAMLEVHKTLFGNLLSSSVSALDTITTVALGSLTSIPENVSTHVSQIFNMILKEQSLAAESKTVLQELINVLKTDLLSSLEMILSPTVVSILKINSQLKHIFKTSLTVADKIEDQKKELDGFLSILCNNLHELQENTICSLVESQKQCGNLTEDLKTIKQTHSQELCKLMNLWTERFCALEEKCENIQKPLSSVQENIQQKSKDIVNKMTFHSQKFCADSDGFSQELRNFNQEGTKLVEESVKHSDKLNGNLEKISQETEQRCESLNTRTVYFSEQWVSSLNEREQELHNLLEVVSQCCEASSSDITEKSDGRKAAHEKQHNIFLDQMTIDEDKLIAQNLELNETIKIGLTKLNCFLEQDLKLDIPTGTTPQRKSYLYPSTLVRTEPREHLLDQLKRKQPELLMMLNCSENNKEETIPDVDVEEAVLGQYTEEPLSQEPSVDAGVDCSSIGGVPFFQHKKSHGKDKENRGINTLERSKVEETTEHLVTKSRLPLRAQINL
# [2] = molecular target: T2, Kinesin-like protein KIF11 (Homo sapiens) (UniProt P52732)
# T2 sequence (whole entry): T1 sequence (P52732 whole entry)
# Description: Binding affinity to KSP motor domain (unknown origin) assessed as change in melting temperature at 100 uM by differential scanning fluorimetry in presence of 1 mM ATP
# [3] = molecular target: T3, Kinesin-like protein KIFC3 (Homo sapiens) (UniProt Q9BVG8); test: Inhibition of microtubule-stimulated KIFC3 motor domain (303 to 638) (unknown origin) ATPase activity at 6.3 uM
# T3 sequence (whole entry): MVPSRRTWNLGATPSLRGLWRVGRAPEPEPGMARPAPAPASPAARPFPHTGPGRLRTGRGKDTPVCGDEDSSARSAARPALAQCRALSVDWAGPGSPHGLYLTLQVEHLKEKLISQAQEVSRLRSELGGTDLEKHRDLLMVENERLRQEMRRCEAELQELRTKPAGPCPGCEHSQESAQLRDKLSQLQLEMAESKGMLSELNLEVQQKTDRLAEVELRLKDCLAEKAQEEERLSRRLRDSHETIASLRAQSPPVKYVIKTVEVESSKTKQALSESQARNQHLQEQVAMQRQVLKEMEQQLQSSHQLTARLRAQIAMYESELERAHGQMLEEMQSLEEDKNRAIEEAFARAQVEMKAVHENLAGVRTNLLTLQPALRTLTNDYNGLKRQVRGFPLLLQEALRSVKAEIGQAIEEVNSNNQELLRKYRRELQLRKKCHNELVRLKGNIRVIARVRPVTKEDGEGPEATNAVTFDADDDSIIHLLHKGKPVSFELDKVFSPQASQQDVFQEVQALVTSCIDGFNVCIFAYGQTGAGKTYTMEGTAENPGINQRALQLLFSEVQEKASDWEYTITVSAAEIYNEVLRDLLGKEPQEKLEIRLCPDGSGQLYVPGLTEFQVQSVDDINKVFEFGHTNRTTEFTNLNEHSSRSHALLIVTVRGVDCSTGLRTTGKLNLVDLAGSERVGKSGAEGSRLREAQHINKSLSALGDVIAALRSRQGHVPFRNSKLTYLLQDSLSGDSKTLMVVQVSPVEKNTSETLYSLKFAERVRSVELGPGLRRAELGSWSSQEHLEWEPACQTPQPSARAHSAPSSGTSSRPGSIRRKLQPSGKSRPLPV
# HCT-116 [4] = test: Antitumor activity against human HCT116 cells xenografted in iv dosed athymic nude BALB/cAJcL mouse assessed as inhibition of tumor growth drug administered on days 1,3,5,8,10 and 12 measured on day 15; assay type: functional, organism-based
# HeLa [5] = test: Cell cycle arrest at mitotic phase in human HeLa cells assessed as mitotic index after 6 hrs; assay type: functional
# HeLa [6] = test: Cell cycle arrest at mitotic phase in human HeLa cells assessed as formation of monopolar spindles at 40 nM after 6 hrs by DAPI staining-based microscopic analysis; assay type: functional
# HCT-116 [7] = test: Antitumor activity against human HCT116 cells xenografted in athymic nude BALB/cAJcL mouse assessed as inhibition of tumor growth at 75 mg/kg, iv administered on days 1,3,5,8,10 and 12 measured on day 15; assay type: functional
# Mus musculus = test: Toxicity in athymic nude BALB/cAJcL mouse xenografted with HCT116 cells assessed as mortality at 75 mg/kg, iv administered on days 1,3,5,8,10 and 12; assay type: organism-based, HCT-116; settings: in vivo
structure (smiles),measurement,setting,value
COc1ccc(C2(SC[C@H](N)C(=O)O)c3ccccc3CCc3ccccc32)cc1,IC50,[1],14 nM
same,ΔTm,[2],12 °C
same,inhibition,[3],inactive
N[C@@H](CSC1(c2ccc(C(F)(F)F)cc2)c2ccccc2CCc2ccccc21)C(=O)O,TGI,HCT-116 [4],Dose-dependent effect
same,MI50,HeLa [5],14 nM
same,Activity,HeLa [6],Active
same,IC50,[1],21 nM
same,T/C,HCT-116 [7],9%
same,inhibition,[3],inactive
same,Activity,Mus musculus,Non-toxic
